Reference: patent publication US6852501B2, “Methods for determining ATPase activity and uses thereof” (Boehringer Ingelheim (Canada) Ltd., priority 1999, dated 2005)
Like-named read-outs stand apart in the source and are kept apart here.

Assays:
HPV-11 E1 = biological target: T1, HPV-11 E1 (Human papillomavirus 11, UniProt P04014); assay: E1 ATPase SPA kinetic analysis (Km/Ki); assay type: biochemical, human papilloma virus
T1 construct: polyhistidine; made in house; host or cells: baculovirus-infected insect cells
T1 sequence (P04014 whole entry): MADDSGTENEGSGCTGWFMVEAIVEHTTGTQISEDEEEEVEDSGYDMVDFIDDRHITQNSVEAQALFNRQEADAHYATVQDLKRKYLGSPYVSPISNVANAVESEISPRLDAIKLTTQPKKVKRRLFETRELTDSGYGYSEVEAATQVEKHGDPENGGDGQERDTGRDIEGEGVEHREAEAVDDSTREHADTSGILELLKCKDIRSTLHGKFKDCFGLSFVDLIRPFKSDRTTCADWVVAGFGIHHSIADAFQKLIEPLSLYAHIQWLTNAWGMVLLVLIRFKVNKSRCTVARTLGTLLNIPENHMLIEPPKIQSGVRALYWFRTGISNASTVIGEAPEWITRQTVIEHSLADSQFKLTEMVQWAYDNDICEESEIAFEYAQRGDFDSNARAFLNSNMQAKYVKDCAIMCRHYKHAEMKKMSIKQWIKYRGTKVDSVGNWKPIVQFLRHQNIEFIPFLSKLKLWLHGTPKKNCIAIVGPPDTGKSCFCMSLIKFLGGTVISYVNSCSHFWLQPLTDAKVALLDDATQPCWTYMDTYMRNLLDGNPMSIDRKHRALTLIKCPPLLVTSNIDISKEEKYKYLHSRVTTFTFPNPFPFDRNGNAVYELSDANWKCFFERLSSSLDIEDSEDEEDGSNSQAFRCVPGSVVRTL
Description: Polyhistidine-tagged HPV-11 E1 was expressed in baculovirus-infected insect cells and purified by Ni-affinity chromatography as described in WO 99/57283 (incorporated herein by reference).
ATPase time-courses were run at different concentrations of ATP in order to determine the kinetic parameter Km(ATP) for HPV-11 E1. Reactions were run under similar conditions in both experiments, using the procedures given in Examples 1 and 2, except that the concentration of Igepal-CA630 was 0.01% rather than 0.005% and with experiment-specific changes noted below. The E1 concentration was 2 nM and the ATP concentrations ranged from 3-75 μM (TLC) or 2-50 μM (SPA), with the MgOAc concentration equal to the ATP concentration plus 0.5 mM. Stock solutions of ATP at each concentration were obtained by diluting the highest concentration solution with buffer containing 0.5 mM MgOAc; thus a constant ratio of radiolabeled to unlabeled ATP was used for all reactions. Reaction rates were measured by taking time-points from 10 or 20 to 120 minutes. To insure initial velocity conditions, time-points giving greater than 20% conversion were not used for analysis.
Total reaction volumes were 150 μL. For each time-point, 20 μL of reaction mixture was removed and combined with 40 μL of ammonium molybdate/SPA bead mixture followed by 80 μL of CsCl/citric acid. All reactions were run in triplicate. Plates were counted after overnight incubation. At the last time-point, an additional 20 μL aliquot was removed and combined with 10 μL 0.5 M EDTA. In this case, the conversion of ATP to phosphate was quantified by TLC, and the concentration of phosphate determined by TLC was compared to the cpm from the SPA procedure, after subtraction of blanks in both cases. The relationship between phosphate concentration and cpm is linear and the slope of the line was used to convert cpm values from SPA detection to concentration of phosphate produced. Rates of phosphate production at each ATP concentration were fit by nonlinear regression to the Michaelis-Menten equation using the program Grafit (V 3.01, R. Leatherbarrow).
The γ-thio phosphate analog of ATP inhibits many ATPases by a competitive mechanism. Experimental determination of the mechanism of inhibitor action requires measuring initial velocities for a number of substrate and inhibitor concentrations. The number of data points needed (several hundred) and the precision required for this experiment mean that performing the experiment by TLC detection is much more difficult and tedious. The SPA procedure works well, however. For this experiment, ATP concentrations of 5, 10, 20 and 40 μM were used, along with inhibitor concentrations of 0, 3, 6, 12 and 24 μM. Reactions were run as described for Example 9 (SPA detection). Data were processed as above and fit by nonlinear regression to an equation for competitive inhibition using GraFit. […] The plot was generated in Excel using the fitted parameters for the lines and the experimental values for points. For comparison, the data were also fit to an equation for non-competitive inhibition (equal binding of inhibitor to enzyme and enzyme-substrate complexes). […] Because of the quality of the data obtained it is possible to observe a systematic deviation between the experimental and fitted values for this second mechanism, especially at higher inhibitor concentrations.

[1] = biological target: HPV-6a ATPase activity (HPV-6 E1) (Human papillomavirus type 6a, UniProt Q84293); assay: E1 ATPase scintillation proximity assay, IC50 curves; assay type: biochemical, human papilloma virus; settings: nonlinear regression; 1 μM ATP, 6 nM HPV-6 E1, 75 minutes, SPA detection; read-out: IC50 for inhibition of HPV-6a ATPase activity
Chain of HPV-6a ATPase activity (HPV-6 E1) (Q84293 whole entry): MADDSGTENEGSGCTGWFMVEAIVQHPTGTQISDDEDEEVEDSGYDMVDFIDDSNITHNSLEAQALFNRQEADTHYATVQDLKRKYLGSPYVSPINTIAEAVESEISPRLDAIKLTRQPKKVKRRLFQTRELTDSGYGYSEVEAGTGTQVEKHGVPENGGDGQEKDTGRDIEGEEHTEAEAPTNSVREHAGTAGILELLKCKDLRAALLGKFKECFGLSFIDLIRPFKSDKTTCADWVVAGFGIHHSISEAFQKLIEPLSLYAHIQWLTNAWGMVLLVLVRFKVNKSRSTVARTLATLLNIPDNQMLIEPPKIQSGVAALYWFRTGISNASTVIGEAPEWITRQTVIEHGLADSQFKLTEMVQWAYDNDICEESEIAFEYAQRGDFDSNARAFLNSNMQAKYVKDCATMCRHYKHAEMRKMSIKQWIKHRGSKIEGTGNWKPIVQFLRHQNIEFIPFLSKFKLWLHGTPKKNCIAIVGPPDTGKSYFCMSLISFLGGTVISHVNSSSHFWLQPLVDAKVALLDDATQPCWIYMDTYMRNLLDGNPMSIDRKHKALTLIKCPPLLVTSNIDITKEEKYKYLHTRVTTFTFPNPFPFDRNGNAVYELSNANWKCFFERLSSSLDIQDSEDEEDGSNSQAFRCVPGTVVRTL
Protocol: Radiolabeled [γ-^33P]ATP (NEN) was prepared upon receipt by diluting it 100-fold in the reaction buffer and storing it at −80° C. Material stored in this way was good for greater than one month. E1 ATPase reactions were run in a buffer consisting of 20 mM HEPES, pH 7.5, 0.05 mM EDTA and 1 mM DTT, and 0.05% Igepal CA-630 (equivalent to Nonidet P40). Volumes and concentrations given below are typical, but these can be varied somewhat with minimal effect on results, as shown in later examples. One μM ATP (Amersham Pharmacia) and 500 μM MgOAc were mixed with [γ-^33P]ATP at 100-fold dilution from the stored material (10,000 dilution from the stock), or approximately 1 nCi/μL when fresh. The actual ATP concentration contributed by [γ-^33P]ATP was approximately 1 nM; this amount could be reduced further if necessary. […]
At the desired time, 40 μL reactions were stopped by adding 20 PL of a SPA bead-AmMo mixture. […] The extent of phosphate production was then determined by scintillation counting using the TopCount (Packard). If desired, cpm can be converted to phosphate concentration by comparison of SPA results to those determined by TLC (see below) for identical reactions. […]
All solutions are made in the assay buffer described in Example 3 except that the assay buffer also contained 0.005% Igepal CA-630. […] After mixing briefly, plates were left for 90 minutes and then counted on a TopCount. […]

Which Km (HPV-11 E1; background statement, measured in the absence of DNA, read-out: Km (ATP) of the HPV-11 E1 ATPase) does the source give for Nc1ncnc2c1ncn2[C@@H]1O[C@H](COP(=O)(O)OP(=O)(O)OP(=O)(O)O)[C@@H](O)[C@H]1O [ATP] here?
Its Km is about 10 µM.

And the Km (HPV-11 E1; fit to competitive inhibition, read-out: Km(ATP))?
The Km was 6.7 ± 0.7 µM.

And the Km (HPV-11 E1; fit to non-competitive inhibition, read-out: Km(ATP))?
The Km was 12 ± 2 µM.

“adenosine-5′-O-(3-thiotriphosphate) [ATP-γ-S]” was tested. Which IC50 [1] did it give?
Its IC50 is 8 ± 1.6 µM.

And the mechanism of inhibition (HPV-11 E1; comparison of competitive and noncompetitive fits)?
The mechanism of inhibition was “the competitive model is more appropriate”.

What about the Ki(ATP-γ-S) (HPV-11 E1; fit to non-competitive inhibition (equal binding to enzyme and enzyme-substrate complexes)) of the same molecule?
The Ki(ATP-γ-S) was 16 ± 2 µM.
